Where “and” joins values, the source holds several entries; their conditions need not be identical. Identical values can stand only once. Like-named read-outs stand apart in the source and are kept apart here. Marks after values point to notes of the source that are not given here.
How the values were obtained:
BoNT/A = BoNT/A (Clostridium botulinum, UniProt P0DPI0); assay: biochemical; conditions: for inhibition at 5 µM: read-out: % Inhibition against BoNT/A (5 μM)
[1] = tested on: BoNT/A-induced neuromuscular block in mouse phrenic nerve hemidiaphragm
neuroblastoma N2a cells = conditions: for concentration well-tolerated by the cells / concentration toxic to N2a cells: mouse
[2] = molecular target: recombinant full-length BoNT/A light chain (rALC) (Clostridium botulinum, UniProt P0DPI0); assay: biochemical; conditions: read-out: % Inhibition Against rALC
Chain of recombinant full-length BoNT/A light chain (rALC) (P0DPI0 2-448 limits assumed): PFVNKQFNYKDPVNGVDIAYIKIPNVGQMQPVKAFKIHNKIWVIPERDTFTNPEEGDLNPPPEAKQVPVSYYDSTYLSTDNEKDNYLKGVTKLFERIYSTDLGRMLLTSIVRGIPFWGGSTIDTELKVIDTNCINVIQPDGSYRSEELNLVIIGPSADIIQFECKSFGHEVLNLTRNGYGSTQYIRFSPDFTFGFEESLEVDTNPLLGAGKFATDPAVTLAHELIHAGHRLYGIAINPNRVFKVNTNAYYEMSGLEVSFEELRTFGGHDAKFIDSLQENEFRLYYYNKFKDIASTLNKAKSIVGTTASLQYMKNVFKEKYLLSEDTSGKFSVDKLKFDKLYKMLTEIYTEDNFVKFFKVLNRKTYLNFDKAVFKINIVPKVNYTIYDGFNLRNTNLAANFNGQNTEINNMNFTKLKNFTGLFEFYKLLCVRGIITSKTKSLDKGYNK

[3] = tested on: BoNT/A-mediated cleavage of intracellular SNAP-25 in N2a cells; assay type: cell-based, murine; conditions: 10 μM
[4] = molecular target: recombinant full-length BoNT/B light chain (rBLC) (Clostridium botulinum, UniProt P10844); assay: biochemical; conditions: for inhibition at 20 µM: read-out: % Inhibition Against rBLC
Chain of recombinant full-length BoNT/B light chain (rBLC) (P10844 2-441 limits assumed): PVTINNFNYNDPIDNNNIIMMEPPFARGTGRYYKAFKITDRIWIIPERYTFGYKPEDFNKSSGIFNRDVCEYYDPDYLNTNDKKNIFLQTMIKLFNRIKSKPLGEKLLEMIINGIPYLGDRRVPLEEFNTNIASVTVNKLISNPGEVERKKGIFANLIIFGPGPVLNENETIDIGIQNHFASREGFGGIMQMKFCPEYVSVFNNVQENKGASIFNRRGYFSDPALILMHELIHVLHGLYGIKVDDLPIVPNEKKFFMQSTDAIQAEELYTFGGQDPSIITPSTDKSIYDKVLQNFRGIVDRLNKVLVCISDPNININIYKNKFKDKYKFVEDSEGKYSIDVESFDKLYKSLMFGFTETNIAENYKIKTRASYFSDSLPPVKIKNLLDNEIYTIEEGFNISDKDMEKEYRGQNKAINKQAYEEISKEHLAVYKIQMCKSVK

Chain of BoNT/A (P0DPI0 1-448 limits assumed): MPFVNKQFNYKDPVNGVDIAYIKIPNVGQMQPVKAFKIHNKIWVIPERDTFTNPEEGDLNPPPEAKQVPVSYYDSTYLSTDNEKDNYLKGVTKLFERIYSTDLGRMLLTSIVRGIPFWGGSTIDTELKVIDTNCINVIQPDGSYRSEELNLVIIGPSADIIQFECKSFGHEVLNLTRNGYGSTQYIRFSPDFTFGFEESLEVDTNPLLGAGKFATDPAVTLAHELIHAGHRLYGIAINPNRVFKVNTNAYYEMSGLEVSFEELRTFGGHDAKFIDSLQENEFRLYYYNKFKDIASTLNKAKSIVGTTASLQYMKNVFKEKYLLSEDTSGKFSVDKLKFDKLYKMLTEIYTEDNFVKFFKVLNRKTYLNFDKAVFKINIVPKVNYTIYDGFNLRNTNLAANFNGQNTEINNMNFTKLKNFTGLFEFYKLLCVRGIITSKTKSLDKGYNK

Molecule | IC50 (BoNT/A) [µM] | inhibition at 5 µM (BoNT/A) [%] | cell toxicity (neuroblastoma N2a cells) | inhibition at 20 µM [2] [%] | inhibition at 20 µM [4] [%] | further results
Nc1cc(C(Nc2ccccn2)c2ccccc2)c(O)c2ncccc12 (stereo not drawn) [Compound 4874-051A] | 2.2 | 94 |  |  |  | 
Oc1c(C(Nc2cccnc2)c2ccc(C(F)(F)F)cc2)ccc2cccnc12 (racemic) [CB 7967495] |  |  | non-toxic to cells | 92.7 ± 1.5 | 30.2 ± 2.4 | effective concentration of inhibitor required for maximum protection [1]: 5 µM; concentration well-tolerated by the cells (neuroblastoma N2a cells): up to 50 μM; inhibition of SNAP-25 cleavage [3]: near-to-complete inhibition
Oc1c(C(Nc2cccc3cccnc23)c2ccccc2)ccc2cccnc12 (racemic) [NSC 84096] |  |  | non-toxic to cells | 91.9 ± 1.7 | 6.9 | Average Time to 50% Loss of Twitch Tension [1]: 59.7 ± 4.9^d min; effective concentration of inhibitor required for maximum protection [1]: 20 µM; concentration well-tolerated by the cells (neuroblastoma N2a cells): up to 50 μM; protection from SNAP-25 cleavage [3]: 66%
O=[N+]([O-])c1ccc(NC(c2ccccc2)c2ccc3cccnc3c2O)cc1 (stereo not drawn) [NSC 1010] |  |  |  |  |  | concentration toxic to N2a cells (neuroblastoma N2a cells): ≥ 10 µM; inhibition of BoNT serotype B light chain [4]: failed to inhibit
Cc1ccc2ccc(C(Nc3cccnc3)c3ccc(F)cc3)c(O)c2n1 (stereo not drawn) [Compound 5116-048A] |  | 87 |  |  |  | IC50 (BoNT/A; read-out: IC50): 0.8 µM
CCOc1ccc(C(Nc2cccnc2)c2cc(Cl)c3cccnc3c2O)cc1 (racemic) [CB 7969312] |  |  | non-toxic to cells | 96.2 ± 1.2 | 31.2 ± 3 | concentration well-tolerated by the cells (neuroblastoma N2a cells): up to 50 μM; inhibition of SNAP-25 cleavage [3]: near-to-complete inhibition
Oc1c(C(Nc2cccnc2)c2ccc(F)cc2)ccc2cccnc12 (stereo not drawn) [Compound 5116-050A] | 1.2 | 86.7 |  |  |  | 
Cc1ccc2ccc(C(Nc3cccnc3)c3ccccc3)c(O)c2n1 (stereo not drawn) [Compound 5116-047A] |  | 83 |  |  |  | IC50 (BoNT/A; read-out: IC50): 1.4 µM
CRATKML [Ac-CRATKML-NH2, reference compound] |  |  |  |  |  | Average Time to 50% Loss of Twitch Tension [1]: 52.70 ± 9.30^c min and 65.0 ± 11.5^c min
Oc1c(C(Nc2cccnc2)c2ccccc2F)ccc2cccnc12 (racemic) [CB 7968218] |  |  | non-toxic to cells | 92.8 ± 0.8 | 16.8 ± 2.2 | effective concentration of inhibitor required for maximum protection [1]: 10 µM; concentration toxic to N2a cells (neuroblastoma N2a cells): above 45 μM; protection from SNAP-25 cleavage [3]: 68%
Oc1c(C(Nc2cccnc2)c2ccccc2F)cc(Cl)c2cccnc12 (stereo not drawn) [Compound 5116-052A] | < 1 | 97.5 |  |  |  | 
Oc1c(C(Nc2cccnc2)c2ccc(F)cc2)cc(Cl)c2cccnc12 (stereo not drawn) [Compound 5116-051A] | < 1 | 91 |  |  |  | 

— US10301265B2 (priority 2008, dated 2019)
